From PMC10683482, “Offsetting Low-Affinity Carbohydrate Binding with Covalency to Engage Sugar-Specific Proteins for Tumor-Immune Proximity Induction” (ACS Central Science, 2023)

Test system: Hek-PSMA cells
Test: ADCC reporter (jurkat activation) assay directly in polyclonal human IgG (Figure 5C)
Assay type: cell-based
Conditions: 9 μM compound with 230 μM human IgG 24 h, no column step
Description: Figure 5 Functional analysis of PSMA-targeting SuFEx cARMs. A. Chemical structure of the functional GU cARM molecule used for PSMA targeting. B. Confocal (top) and fluorescent imaging (bottom) of Hek-PSMA cells treated with anti-23F only or anti-23F antibody pre-incubated with rhamnose-SO2F-cARM 14. C. Jurkat activation assay evaluation of 14 directly in polyclonal human IgG. Each cARM/ARM (9 μM) was incubated with polyclonal human IgG (230 μM) overnight and then added to pre-plated Hek-P cells (50,000 cells). To this cell solution, luciferase expressing jurkat cells were added and incubated for 24 hours. Activation of jurkat cells was determined by measuring luciferase expression with a BioGlo assay kit. D. ADCP assays using various PSMA-expressing model and bonafide cancer cell lines. Each cARM/ARM (8 μM) was incubated with anti-23F (4 μM) overnight followed by addition to target cells (150,000 cells). Next, IFN-γ activated monocytes (150,000 cells) were added and incubated for 1 hour at 37 °C. ADCP was determined via flow cytometry.
Next, the capacity of alkyl-AI-cARM 10, alkyl-ARM 11, and SO2F-cARM 14 to direct immune activation via polyclonal anti-rhamnose antibodies was evaluated using a modified ADCC reporter assay (Figure 5C). ADCC represents a major mode of antitumor NK cell immunotherapeutic function, common to many FDA-approved monoclonal antibody therapies. […]

Row | Compound | jurkat (immune) activation
1 | C[C@@H]1O[C@@H](OCc2cn(CCCNC(=O)OCCNC(=O)CCCCCNC(=O)CCCCCNC(=O)CCCCCNC(=O)NCCCC[C@H](NC(=O)N[C@@H](CCC(=O)O)C(=O)O)C(=O)O)nn2)[C@H](O)[C@H](O)[C@H]1O [compound 11] | failed to direct immune activation
2 | C[C@@H]1O[C@@H](OCc2cn(CCc3cn(C(=O)OCCNC(=O)CCCCCNC(=O)CCCCCNC(=O)CCCCCNC(=O)NCCCC[C@H](NC(=O)N[C@@H](CCC(=O)O)C(=O)O)C(=O)O)cn3)nn2)[C@H](O)[C@H](O)[C@H]1O [compound 10] | failed to direct immune activation
